In PMC4710522, “A Novel Triazolopyridine-Based Spleen Tyrosine Kinase Inhibitor That Arrests Joint Inflammation” (PLoS ONE, 2016):
Several values for one entry are separate records, joined by “and”; a condition that tells them apart may be missing. Equal values may be shown once. Read-outs that look alike come from different tables or passages of the source.

Columns and labels:
[1] = target: T1, Blk_m (Mus musculus, UniProt P16277); test: SelectScreen kinase assay; assay type: biochemical; conditions: KM ATP
T1 construct: purchased Life Technologies (Invitrogen) SelectScreen, Z'-LYTE / Adapta
Procedure: (§1) Syk kinase mode of inhibition studies, including parameters described in Fig 1, were conducted on the LC3000 platform by Caliper Life Sciences (Hopkinton, MA) according to standard protocols developed by the supplier. […] Non-kinase enzyme assays and GPCR, ion channel, and transporter binding assays were run by CEREP (France). Non-GLP manual patch clamp hERG assays were run by ChanTest (Cleveland, Ohio). Vivid® Assay kits (Life Technologies) were used to measure the cytochrome P450 inhibition of the compound against CYP3A, CYP2C9, CYP2C19, CYP2D6, and CYP1A2, as described.
(§2) Kinase activity was measured using either the Z’-Lyte® or the Adapta® protocols as part of the SelectScreen™ profiling service offered at Life Technologies (Grand Island, NY). For the single point measurements (Part A), CC-509 was kept constant at 3 µM while ATP concentrations [ATP] used were at the KM for ATP (KM ATP) for that specific enyzme, at 10 or 100 µM ATP (10 ATP or 100 ATP, respectively), as indicated. Values expressed as percent control (% control) relative to DMSO-only wells (uninhibited, 100%).
(§3) Kinase activity was measured using either the Z’-Lyte® or the Adapta® protocols as part of the SelectScreen™ profiling service offered at Life Technologies (Grand Island, NY). […] Values expressed as percent control (% control) relative to DMSO-only wells (uninhibited, 100%).

[2] = target: T2, CDK1_cyclinB_h (Homo sapiens, UniProt P06493); test: SelectScreen kinase assay; assay type: biochemical; conditions: KM ATP
T2 construct: purchased Life Technologies (Invitrogen) SelectScreen, Z'-LYTE / Adapta
Procedure: as §1, §2, §3

[3] = target: T3, DYRK3_h (Homo sapiens, UniProt O43781); test: SelectScreen kinase assay; assay type: biochemical; conditions: KM ATP
T3 construct: purchased Life Technologies (Invitrogen) SelectScreen, Z'-LYTE / Adapta
Procedure: as §1, §2, §3

[4] = target: T4, DYRK4_h (Homo sapiens, UniProt Q9NR20); test: SelectScreen kinase assay; assay type: biochemical; conditions: KM ATP
T4 construct: purchased Life Technologies (Invitrogen) SelectScreen, Z'-LYTE / Adapta
Procedure: as §1, §2, §3

[5] = target: T5, EEF2K_h (Homo sapiens, UniProt O00418); test: SelectScreen kinase assay; assay type: biochemical; conditions: KM ATP
T5 construct: purchased Life Technologies (Invitrogen) SelectScreen, Z'-LYTE / Adapta
Procedure: as §1, §2, §3

[6] = target: T6, GRK3_h (Homo sapiens, UniProt P35626); test: SelectScreen kinase assay; assay type: biochemical; conditions: KM ATP
T6 construct: purchased Life Technologies (Invitrogen) SelectScreen, Z'-LYTE / Adapta
Procedure: as §1, §2, §3

[7] = target: T7, GRK5_h (Homo sapiens, UniProt P34947); test: SelectScreen kinase assay; assay type: biochemical; conditions: KM ATP
T7 construct: purchased Life Technologies (Invitrogen) SelectScreen, Z'-LYTE / Adapta
Procedure: as §1, §2, §3

[8] = target: T8, GRK6_h (Homo sapiens, UniProt P43250); test: SelectScreen kinase assay; assay type: biochemical; conditions: KM ATP
T8 construct: purchased Life Technologies (Invitrogen) SelectScreen, Z'-LYTE / Adapta
Procedure: as §1, §2, §3

[9] = target: T9, GSG2 _h (Homo sapiens, UniProt Q8TF76); test: SelectScreen kinase assay; assay type: biochemical; conditions: KM ATP
T9 construct: purchased Life Technologies (Invitrogen) SelectScreen, Z'-LYTE / Adapta
Procedure: as §1, §2, §3

[10] = target: T10, MAP3K8_h (Homo sapiens, UniProt P41279); test: SelectScreen kinase assay; assay type: biochemical; conditions: 100 µM ATP
T10 construct: purchased Life Technologies (Invitrogen) SelectScreen, Z'-LYTE / Adapta
Procedure: as §1, §2, §3

[11] = target: T11, MAPKAP-K3_h (Homo sapiens, UniProt Q16644); test: SelectScreen kinase assay; assay type: biochemical; conditions: KM ATP
T11 construct: purchased Life Technologies (Invitrogen) SelectScreen, Z'-LYTE / Adapta
Procedure: as §1, §2, §3

[12] = target: T12, PASK_h (Homo sapiens, UniProt Q96RG2); test: SelectScreen kinase assay; assay type: biochemical; conditions: KM ATP
T12 construct: purchased Life Technologies (Invitrogen) SelectScreen, Z'-LYTE / Adapta
Procedure: as §1, §2, §3

[13] = target: T13, PKC-betaI_h (Homo sapiens, UniProt P05771); test: SelectScreen kinase assay; assay type: biochemical; conditions: KM ATP
T13 construct: purchased Life Technologies (Invitrogen) SelectScreen, Z'-LYTE / Adapta
Procedure: as §1, §2, §3

[14] = target: T14, PKC-gamma_h (Homo sapiens, UniProt P05129); test: SelectScreen kinase assay; assay type: biochemical; conditions: KM ATP
T14 construct: purchased Life Technologies (Invitrogen) SelectScreen, Z'-LYTE / Adapta
Procedure: as §1, §2, §3

[15] = target: T15, PKC-zeta_h (Homo sapiens, UniProt Q05513); test: SelectScreen kinase assay; assay type: biochemical; conditions: KM ATP
T15 construct: purchased Life Technologies (Invitrogen) SelectScreen, Z'-LYTE / Adapta
Procedure: as §1, §2, §3

[16] = target: T16, TSSK2_h (Homo sapiens, UniProt Q96PF2); test: SelectScreen kinase assay; assay type: biochemical; conditions: KM ATP
T16 construct: purchased Life Technologies (Invitrogen) SelectScreen, Z'-LYTE / Adapta
Procedure: as §1, §2, §3

[17] = tested on: FcγR-induced TNFα production in primary human macrophage; test: primary human macrophage assay, anti-IgG stimulated TNF secretion; assay type: cell-based
Procedure: Mobilized CD14-positive monocytes were plated in 96-well flat bottom plates in RPMI media supplemented with 100 ng/ml GM-CSF for 5 days. The plates were preincubated with CC-509 at indicated concentrations for 30 minutes. Biotinylated anti-IgG and streptavidin at 10 μg/ml final concentrations were thoroughly mixed, added to appropriate wells on the cell plate, and plate placed back in tissue culture incubator 8 hours. Following incubation, supernatants were collected and processed for TNFα Mesoscale single-plex cytokine assay as described by manufacturer (Mesoscale, Gaithersberg, MD). Briefly, the plates were incubated with sample or calibrator for 2 hours on an orbital shaker at room temperature. The detection antibody was added to all wells, the plate incubated for 2 hours at room temperature on an orbital shaker, and washed three times. Diluted Mesoscale detection solution was added to all wells and the plates were read on the Sector Imager instrument (Mesoscale, Gaithersberg, MD) plate reader.
For the TEL-Syk assay, the intensity values for the 700 and 800 channel were exported as text files in ActivityBase (IDBS, Guildford, UK) to derive the ratios that reflect kinase activity. For LAD2 experiments, enzyme activity values were exported as text files into ActivityBase to calculate “percent release” according to the formula: 100* supernatant OD405/ (supernatant OD405 + (pellet OD405*pellet dilution factor)). For the basophil and B-cells assays, flow cytometry data was exported from the FACS Array and processed using FloJo software package (TreeStar, Inc., Ashland, Oregon). For the JAK2 HEL and Ramos NFAT β-lactamase assays, the fluorescence values obtained at 460 nm and 530 nm were exported into ActivityBase to calculate response ratios. […] Evans blue dye extravasation was expressed as mean ± SEM and % inhibition for the test article groups was normalized to the cromolyn positive control. […] The mean data from each group was plotted and either the AUC(day 11–18) or % inhibition on day 18 was calculated. Data is expressed as mean ± SEM of each group with n = 6–12. […]

T15 sequence (Q05513 whole entry): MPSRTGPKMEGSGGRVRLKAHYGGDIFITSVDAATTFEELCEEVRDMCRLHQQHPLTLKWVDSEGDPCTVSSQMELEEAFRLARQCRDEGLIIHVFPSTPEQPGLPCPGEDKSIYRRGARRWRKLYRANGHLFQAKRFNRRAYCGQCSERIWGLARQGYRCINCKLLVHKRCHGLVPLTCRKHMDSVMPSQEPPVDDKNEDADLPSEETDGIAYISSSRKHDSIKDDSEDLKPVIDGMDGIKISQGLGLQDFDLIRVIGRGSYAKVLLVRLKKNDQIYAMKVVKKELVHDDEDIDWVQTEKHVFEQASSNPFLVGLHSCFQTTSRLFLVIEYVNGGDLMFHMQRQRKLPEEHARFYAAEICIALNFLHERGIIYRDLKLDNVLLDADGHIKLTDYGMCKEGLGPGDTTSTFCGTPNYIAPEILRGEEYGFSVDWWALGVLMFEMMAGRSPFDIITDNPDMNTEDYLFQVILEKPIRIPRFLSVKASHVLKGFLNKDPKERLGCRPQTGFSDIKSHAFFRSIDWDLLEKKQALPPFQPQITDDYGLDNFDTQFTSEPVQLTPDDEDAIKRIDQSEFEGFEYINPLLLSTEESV
T4 sequence (Q9NR20 whole entry): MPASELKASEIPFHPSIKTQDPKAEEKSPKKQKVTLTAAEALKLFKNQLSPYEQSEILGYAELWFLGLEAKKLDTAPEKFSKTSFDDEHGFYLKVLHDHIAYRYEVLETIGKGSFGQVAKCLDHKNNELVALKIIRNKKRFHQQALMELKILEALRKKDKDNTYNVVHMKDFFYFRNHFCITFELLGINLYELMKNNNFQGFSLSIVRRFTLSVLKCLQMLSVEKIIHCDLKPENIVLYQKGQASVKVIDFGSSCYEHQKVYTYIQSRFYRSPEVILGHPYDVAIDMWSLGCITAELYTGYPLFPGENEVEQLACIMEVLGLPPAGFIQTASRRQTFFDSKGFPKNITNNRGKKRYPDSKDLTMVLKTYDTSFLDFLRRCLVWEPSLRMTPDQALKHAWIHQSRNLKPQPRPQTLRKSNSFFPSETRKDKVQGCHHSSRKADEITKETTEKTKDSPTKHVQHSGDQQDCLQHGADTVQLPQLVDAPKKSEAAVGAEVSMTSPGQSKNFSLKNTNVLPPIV
T8 sequence (P43250 whole entry): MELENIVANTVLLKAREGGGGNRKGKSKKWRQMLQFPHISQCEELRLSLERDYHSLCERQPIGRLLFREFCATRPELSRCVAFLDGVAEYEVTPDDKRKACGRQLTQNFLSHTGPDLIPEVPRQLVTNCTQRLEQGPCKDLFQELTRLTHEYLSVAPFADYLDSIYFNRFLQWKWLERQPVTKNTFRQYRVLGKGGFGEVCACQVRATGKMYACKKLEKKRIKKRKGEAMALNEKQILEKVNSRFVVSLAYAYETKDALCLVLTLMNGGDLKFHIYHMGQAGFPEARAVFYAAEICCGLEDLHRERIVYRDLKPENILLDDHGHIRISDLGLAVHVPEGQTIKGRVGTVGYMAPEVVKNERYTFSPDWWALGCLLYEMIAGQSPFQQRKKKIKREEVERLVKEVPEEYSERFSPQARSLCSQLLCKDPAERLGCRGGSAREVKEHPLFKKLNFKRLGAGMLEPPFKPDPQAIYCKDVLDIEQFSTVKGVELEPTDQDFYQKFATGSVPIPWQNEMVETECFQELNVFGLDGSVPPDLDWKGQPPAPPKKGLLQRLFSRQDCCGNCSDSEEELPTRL
T1 sequence (P16277 2-499): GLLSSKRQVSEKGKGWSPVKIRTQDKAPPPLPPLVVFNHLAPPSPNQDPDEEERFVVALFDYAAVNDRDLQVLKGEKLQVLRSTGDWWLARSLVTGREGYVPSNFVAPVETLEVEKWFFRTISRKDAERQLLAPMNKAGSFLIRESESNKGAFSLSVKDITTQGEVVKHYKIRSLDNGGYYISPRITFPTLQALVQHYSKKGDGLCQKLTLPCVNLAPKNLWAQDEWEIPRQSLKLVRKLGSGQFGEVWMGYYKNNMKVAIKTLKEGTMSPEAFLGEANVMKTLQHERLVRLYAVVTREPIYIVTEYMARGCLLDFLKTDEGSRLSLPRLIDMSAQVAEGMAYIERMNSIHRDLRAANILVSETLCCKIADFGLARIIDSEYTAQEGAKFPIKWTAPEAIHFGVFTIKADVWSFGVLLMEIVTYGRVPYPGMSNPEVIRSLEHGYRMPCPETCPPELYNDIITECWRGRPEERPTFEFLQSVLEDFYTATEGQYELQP
T10 sequence (P41279 whole entry): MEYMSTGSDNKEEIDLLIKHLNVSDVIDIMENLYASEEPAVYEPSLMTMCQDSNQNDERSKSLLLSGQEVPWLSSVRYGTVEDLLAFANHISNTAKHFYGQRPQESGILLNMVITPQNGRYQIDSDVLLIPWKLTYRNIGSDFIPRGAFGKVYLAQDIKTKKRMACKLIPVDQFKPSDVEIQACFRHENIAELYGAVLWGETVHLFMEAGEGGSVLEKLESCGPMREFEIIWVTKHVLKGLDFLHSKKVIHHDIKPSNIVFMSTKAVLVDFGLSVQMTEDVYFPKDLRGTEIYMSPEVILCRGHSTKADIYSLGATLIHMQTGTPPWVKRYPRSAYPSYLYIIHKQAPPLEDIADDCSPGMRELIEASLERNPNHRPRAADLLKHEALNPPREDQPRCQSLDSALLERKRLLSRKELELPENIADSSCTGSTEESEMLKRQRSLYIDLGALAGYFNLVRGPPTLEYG
T13 sequence (P05771 whole entry): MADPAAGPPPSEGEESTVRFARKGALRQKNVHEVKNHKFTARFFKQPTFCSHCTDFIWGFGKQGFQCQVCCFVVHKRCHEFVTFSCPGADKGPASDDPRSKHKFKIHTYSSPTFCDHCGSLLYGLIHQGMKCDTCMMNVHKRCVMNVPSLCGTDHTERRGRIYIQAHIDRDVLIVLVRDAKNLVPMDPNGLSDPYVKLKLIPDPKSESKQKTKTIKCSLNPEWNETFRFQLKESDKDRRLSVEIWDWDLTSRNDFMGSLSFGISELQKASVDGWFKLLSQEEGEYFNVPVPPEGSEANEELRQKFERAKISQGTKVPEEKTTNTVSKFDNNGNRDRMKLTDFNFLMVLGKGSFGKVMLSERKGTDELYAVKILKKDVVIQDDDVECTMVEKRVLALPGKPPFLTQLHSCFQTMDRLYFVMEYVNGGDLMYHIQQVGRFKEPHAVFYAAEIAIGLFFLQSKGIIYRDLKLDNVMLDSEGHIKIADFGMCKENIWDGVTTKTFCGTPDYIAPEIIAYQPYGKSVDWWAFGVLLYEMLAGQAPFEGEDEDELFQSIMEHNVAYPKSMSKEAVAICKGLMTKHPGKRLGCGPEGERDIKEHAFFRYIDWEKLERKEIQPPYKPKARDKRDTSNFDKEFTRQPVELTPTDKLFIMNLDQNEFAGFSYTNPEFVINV
T3 sequence (O43781 whole entry): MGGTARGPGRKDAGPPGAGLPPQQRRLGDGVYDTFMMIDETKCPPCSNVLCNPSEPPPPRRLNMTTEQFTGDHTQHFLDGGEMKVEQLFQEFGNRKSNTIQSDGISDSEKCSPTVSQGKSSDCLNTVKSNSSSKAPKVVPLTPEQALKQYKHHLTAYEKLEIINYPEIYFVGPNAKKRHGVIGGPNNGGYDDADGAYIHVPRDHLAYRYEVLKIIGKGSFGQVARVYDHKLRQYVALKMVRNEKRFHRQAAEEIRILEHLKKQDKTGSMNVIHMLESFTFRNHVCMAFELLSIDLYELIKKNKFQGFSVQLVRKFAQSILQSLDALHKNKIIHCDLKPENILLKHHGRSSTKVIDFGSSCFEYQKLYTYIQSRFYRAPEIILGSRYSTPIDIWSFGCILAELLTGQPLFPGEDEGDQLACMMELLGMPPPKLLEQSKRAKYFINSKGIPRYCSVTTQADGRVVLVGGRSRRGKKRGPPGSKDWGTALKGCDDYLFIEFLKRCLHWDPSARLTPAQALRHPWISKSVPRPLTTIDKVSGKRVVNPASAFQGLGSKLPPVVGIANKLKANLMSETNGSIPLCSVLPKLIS
T16 sequence (Q96PF2 whole entry): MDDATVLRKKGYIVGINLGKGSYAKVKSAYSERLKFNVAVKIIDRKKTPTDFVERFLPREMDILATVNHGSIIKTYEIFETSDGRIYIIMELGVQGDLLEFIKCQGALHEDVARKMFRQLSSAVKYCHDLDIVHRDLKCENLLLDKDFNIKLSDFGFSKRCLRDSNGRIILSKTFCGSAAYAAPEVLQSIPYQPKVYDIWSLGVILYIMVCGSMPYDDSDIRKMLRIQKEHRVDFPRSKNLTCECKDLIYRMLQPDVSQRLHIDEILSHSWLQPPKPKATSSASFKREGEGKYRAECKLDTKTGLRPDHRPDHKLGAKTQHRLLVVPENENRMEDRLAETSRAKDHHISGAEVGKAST

c1cc(CC2CCOCC2)n2nc(Nc3ccc4c(NC5CCOCC5)n[nH]c4c3)nc2c1 [CC-509, [3-(2H-3,4,5,6-tetrahydropyran-4-ylamino)(1H-indazol-6-yl)][5-(2H-3,4,5,6-tetrahydropyran-4-ylmethyl)(2H-1,2,4-triazolo[1,5-a]pyridin-2-yl)]amine]
remaining activity at 3 µM ([1]; read-out: % control): 63%
remaining activity at 3 µM ([2]; read-out: % control): 82%
remaining activity at 3 µM ([3]; read-out: % control): 80%
remaining activity at 3 µM ([4]; read-out: % control): 97%
remaining activity at 3 µM ([5]; read-out: % control): 94%
remaining activity at 3 µM ([6]; read-out: % control): 98%
remaining activity at 3 µM ([7]; read-out: % control): 96%
remaining activity at 3 µM ([8]; read-out: % control): 92%
remaining activity at 3 µM ([9]; read-out: % control): 100%
remaining activity at 3 µM ([10]; read-out: % control): 79%
remaining activity at 3 µM ([11]; read-out: % control): 88%
remaining activity at 3 µM ([12]; read-out: % control): 100%
remaining activity at 3 µM ([13]; read-out: % control): 92%
remaining activity at 3 µM ([14]; read-out: % control): 45%
remaining activity at 3 µM ([15]; read-out: % control): 86%
remaining activity at 3 µM ([16]; read-out: % control): 93%
IC50 ([17]; Homo sapiens, Macrophage, mean ± SD, minimum n = 3, read-out: IC50, TNFα production induced by FcγR cross-linking): 170 ± 120 nM
IC50 ([17]; Homo sapiens, Macrophage FcγR, curve shown in figure, read-out: IC50 printed in Fig 3A panel): 110 nM

COc1cc(Nc2ncc(F)c(Nc3ccc4c(n3)NC(=O)C(C)(C)O4)n2)cc(OC)c1OC [R406, reference compound]
% control ([1]; 3 µM): 11%
% control ([2]; 3 µM): 68%
% control ([3]; 3 µM): 90%
% control ([4]; 3 µM): 69%
% control ([5]; 3 µM): 92%
% control ([6]; 3 µM): 103%
% control ([7]; 3 µM): 108%
% control ([8]; 3 µM): 100%
% control ([9]; 3 µM): 64%
% control ([10]; 3 µM): 52%
% control ([11]; 3 µM): 96%
% control ([12]; 3 µM): 104%
% control ([13]; 3 µM): 59%
% control ([14]; 3 µM): 16%
% control ([15]; 3 µM): 100% and 101%
% control ([16]; 3 µM): 96%
IC50 ([17]; mean ± SD, minimum n = 3, read-out: IC50, TNFα production induced by FcγR cross-linking): 290 ± 160 nM
